# Patent US20090170899A1, “Stimulators of 5-HT4 receptors and uses thereof” (priority 2004, published 2009)
# Columns and labels:
# [1] = test system: DRN 5-HT neurons; assay: Extracellular single-unit recordings of DRN 5-HT neuron mean firing rate in anaesthetized rats; assay type: in vivo, rat; conditions: prucalopride 2.5 mg/kg, RS 67333 1.5 mg/kg; for enhancement of DRN 5-HT neuron mean firing rate vs control: s.c. osmotic minipumps; for increase of DRN 5-HT neuron firing rate with respect to controls: subacute i.p., 30 min before recordings
# [2] = Forced swimming test (FST); assay type: in vivo, rat; conditions: for change of total time of immobility in FST: Example 3, single i.p. 30 min before test, citalopram or paroxetine 10 mg/kg; for change of total time of immobility in FST / time of immobility in FST: prucalopride 2.5 mg/kg, RS 67333 1.5 mg/kg; for time of immobility in FST: 4 min observation, i.p. 30 min before test, control 88.2±7.2
# Description: The “forced swimming test” (FST) is a behavioural test for rodents, which predicts the efficacy of antidepressant drugs (Porsolt et al., 1977; Lucki, 1997). […] The widespread use of this model is largely a result of its ease of use, reliability across laboratories and ability to detect a broad spectrum of antidepressant agents. The test is based on the observation that rats, following initial escape-oriented movements (climbing and swimming), develop an immobile posture when placed in an inescapable cylinder of water. If they are replaced in the same testing apparatus 24 h later, they resume this immobile posture quickly. The immobility is thought to reflect either a failure of persistence in escape-directed behavior (i.e. behavioral despair) or the development of passive behavior that disengages the animal from active forms of coping with stressful stimuli. If antidepressant treatments are given between the two exposures, the subjects will actively persist engaging in escape-directed behaviors for longer periods of time than after vehicle treatment. This will be reflected by a reduction of immobility time, and by an increase of climbing attempts. […] The combination effect of a particular 5-HT4 agonist and a SSRI may be evaluated using the FST model.
# Experiments were carried out in male Sprague-Dawley rats (Charles River, St Constant, Québec). We used the FST as previously described (Porsolt et al., 1977). Briefly, the rats experienced a pretest session followed 24 hours later by a test session. For both the pretest and the test sessions, conducted under low illumination (12 lx), the rats were placed in a plastic cylindrical tank (50 cm high by 20 cm in diameter) filled with water at […], with a depth of 40 cm, for which the hind limbs could not reach the tank floor. In all experiments, the pretest was carried out for 15 min and the test for 5 min in the same tank but only the last 4 min were analyzed. Following either pretest or test sessions, rats were dried with a towel and kept warm for 30 min before returning in their home cage. A digital camera recorded on line animal's behavior during the FST, and both time of immobility and climbing attempts were counted. Citalopram hydrobromide (10 mg/kg, i.p.) or paroxetine (10 mg/kg, i.p.) and prucalopride hydrochloride (2.5 mg/kg, i.p.) or RS 67333 hydrochloride (1.5 mg/kg, i.p.) were administered simultaneously 30 minutes before the test session. Animals were divided into 4 groups: vehicle/vehicle, 5-HT4 agonist/vehicle, vehicle/SSRI and 5-HT4 agonist/SSRI. For each compound, distilled water was used as the vehicle. All drug dosages refer to the free base.
# Behavioral experiments. We used the FST as previously described (Porsolt et al., 1977). Briefly, rats experienced a pre-test session followed 24 hours later by a test session. For both the pre-test and the test sessions, conducted under low illumination (12 lx), the animals were placed in a plastic cylindrical tank (50 cm high by 20 cm in diameter) filled with water at […], with a depth of 40 cm, for which the hind limbs could not reach the tank floor. In all experiments, the pre-test was carried out for 15 min and the test for 5 min in the same tank but the last 4 min only were analyzed. Prucalopride (2.5 mg/kg, i.p.) and RS 67333 (1.5 mg/kg, i.p.) were administered 30 min before the test session. Following either pre-test or test sessions, rats were dried with a towel and kept warm for 30 min before returning in their home cage. A camera coupled with a computer recorded on line animal behavior during the FST through a specialized digital interface (Videotrack, ViewPoint, Lyon, France). This interface underscored on line the subtraction of video frames. Immobility time in FST was derived from the number of frames (every 40 ms) being below a predefined threshold over FST duration.
# [3] = test system: DRN 5-HT neurons; conditions: cited from earlier work; for enhancement of DRN 5-HT neuron mean firing rate: Lucas et al., 2005
# [4] = test system: CREB phosphorylation in the hippocampus; assay: CREB and pCREB immunoreactivities in hippocampal tissue after 3-day treatment; assay type: in vivo, rat; conditions: 3 days, prucalopride 2.5, RS 67333 1.5 mg/kg/day; for pCREB/CREB ratio in hippocampal tissue: control 0.196±0.02
# Method: Drugs and Chemicals. […] All compounds were diluted in distilled water. All drug dosages refer to the free base. […] BrdU treatments consisted of two administrations per day (50 mg/kg, i.p. each, 8 h interval), starting from the day of minipump insertion until day 2 post-surgery.
# [5] = acute prucalopride 1000 μg/kg i.v., Lucas and Debonnel, 2002
Compound,enhancement of DRN 5-HT neuron mean firing rate vs control ([1]; 3-day continuous treatment),enhancement of DRN 5-HT neuron mean firing rate vs control ([1]; 21-day continuous treatment),increase of DRN 5-HT neuron firing rate with respect to controls [1],change of total time of immobility in FST [2],time of immobility in FST ([2]; Example 6),"increase of climbing in FST ([2]; Example 6, RS 67333 1.5 mg/kg i.p.)",enhancement of DRN 5-HT neuron mean firing rate [3],pCREB/CREB ratio in hippocampal tissue [4],"increase of DRN 5-HT activity in responder neurons [3, 5]","share of 5-HT neurons responding (""responders"") [3, 5]",increase of pCREB/CREB ratio vs control [4]
"CCCCN1CCC(CCC(=O)c2cc(Cl)c(N)cc2OC)CC1 [RS 67333, 1-(4-amino-5-chloro-2-methoxyphenyl)-3-(1-n-burtl-4-piperidinyl)-1-propanone]",79%,59%,66%,very similar effect,42.7 ± 4.9 s,+94%,70%,0.373±0.07,,,
COCCCN1CCC(NC(=O)c2cc(Cl)c(N)c3c2OCC3)CC1 [prucalopride],+50%,+36%,40%,−54%,43.4 ± 3.5 s,,40-45%,0.302±0.07,around 100%,47%,+54%
